Among the test systems are CAKI-1 renal; COLO 205 colon; EKVX NSCLC; IGROV1 ovarian; MDA-MB-231 breast; NCI-H226 lung; SK-MEL-5 melanoma; RPMI-8226 leukemia; HL-60(TB) leukemia; MDA-N.
What all share (test): NCI-60 cell line screen, 48 h

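Five compound concentrations were applied to cells in 96-well plates for 48 hours; endpoints were derived by simple linear interpolation of the resulting dose-response curve. GI50 = concentration required for 50% inhibition of growth. Definition used: TGI = concentration required for complete inhibition of growth.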

With `CN1CCN(C(=O)CCC(=O)Nc2cc3c(c4ccccc24)-c2ccc4ccccc4c2C3)CC1`, the TGI in the experiment on CAKI-1 renal is 3.16 µM; with COLO 205 colon it was 3 µM; with EKVX NSCLC it was 3.13 µM; in the experiment on IGROV1 ovarian, 2.74 µM; in the experiment with MDA-MB-231 breast it was 2.93 µM; in the experiment with NCI-H226 lung, 3.93 µM. Also, in the experiment on SK-MEL-5 melanoma, the TGI stood at 3 µM.

`COc1cc(C2c3cc4c(cc3OC(NNC(N)=O)C2C)OCO4)cc(OC)c1OC` (stereo not given): the TGI with CAKI-1 renal was more than 100 µM; in the experiment with COLO 205 colon it was 0.613 µM; in the experiment with EKVX NSCLC, 99.7 µM; with IGROV1 ovarian, more than 100 µM; in the experiment on MDA-MB-231 breast, 7.25 µM; in the experiment with NCI-H226 lung it was 3.7 µM. Moreover, the TGI in the experiment on RPMI-8226 leukemia is more than 58.1 µM; in the experiment on SK-MEL-5 melanoma, 22.8 µM.

As to `CC1(C)OC[C@H](C(=N)OCc2ccccc2)O1`, the TGI with CAKI-1 renal, in the experiment with COLO 205 colon, in the experiment on EKVX NSCLC, in the experiment on HL-60(TB) leukemia, in the experiment on IGROV1 ovarian and with NCI-H226 lung was more than 100 µM throughout. Moreover, the TGI in the experiment on RPMI-8226 leukemia and in the experiment with SK-MEL-5 melanoma was more than 100 µM throughout.

Turning to `COc1ccc2c(c1)N(Cc1ccc(Cl)cc1)CCC2N1CCCC1=O` (stereo not given), the GI50 in the experiment on CAKI-1 renal was 3.49 µM; in the experiment with COLO 205 colon it was 5.33 µM; in the experiment on EKVX NSCLC, 3.39 µM; with HL-60(TB) leukemia it was 5.34 µM; with IGROV1 ovarian, 3.51 µM; in the experiment with MDA-MB-231 breast it was 4.84 µM. Further, the GI50 in the experiment on NCI-H226 lung was 2.89 µM; with RPMI-8226 leukemia, 1.46 µM; with SK-MEL-5 melanoma, 2.05 µM. In addition, the TGI in the experiment on CAKI-1 renal is 16.7 µM; in the experiment with COLO 205 colon it was 20 µM; in the experiment on EKVX NSCLC it was 19.1 µM; in the experiment with HL-60(TB) leukemia, 24.9 µM; in the experiment with IGROV1 ovarian, more than 100 µM; in the experiment on MDA-MB-231 breast it was 98.5 µM. The TGI with NCI-H226 lung was 34.5 µM; with RPMI-8226 leukemia, 12.8 µM; in the experiment on SK-MEL-5 melanoma, 4.61 µM.

In the case of `O=c1[nH]c(=O)c2ncn(-c3ccc([N+](=O)[O-])cn3)c2[nH]1`, the TGI in the experiment on CAKI-1 renal, with COLO 205 colon, in the experiment with EKVX NSCLC, with HL-60(TB) leukemia, in the experiment on MDA-MB-231 breast and in the experiment with NCI-H226 lung was more than 100 µM each time. Moreover, the TGI in the experiment with RPMI-8226 leukemia and in the experiment with SK-MEL-5 melanoma was more than 100 µM in each case.

Take `CSc1cc(Cl)c(C)cc1S(=O)(=O)NC(=O)NNc1ccc(F)cc1`: the TGI with CAKI-1 renal, in the experiment on COLO 205 colon, in the experiment on EKVX NSCLC, in the experiment with IGROV1 ovarian, in the experiment on MDA-MB-231 breast and in the experiment with MDA-N was more than 100 µM throughout. Besides, the TGI in the experiment on NCI-H226 lung and in the experiment on SK-MEL-5 melanoma was more than 100 µM throughout.

Regarding `CC[C@@]1(O)C[C@H](OC2CC(N(C)C)C(O)C(C)O2)c2c(cc3c(c2O)C(=O)c2c(O)ccc(O)c2C3=O)[C@H]1C(=O)OC` (stereo not given in full), the TGI with CAKI-1 renal was 0.25 µM; with COLO 205 colon, 0.359 µM; in the experiment with EKVX NSCLC, 0.526 µM; with HL-60(TB) leukemia, 0.218 µM; with IGROV1 ovarian, 1.35 µM; in the experiment with NCI-H226 lung, 0.455 µM. Moreover, the TGI in the experiment on RPMI-8226 leukemia is 0.388 µM; in the experiment with SK-MEL-5 melanoma it was 0.461 µM.

With `Nc1nc(Cl)cc(OCC2(CO)CCCC2)n1`, the TGI in the experiment with EKVX NSCLC, in the experiment on HL-60(TB) leukemia, in the experiment with IGROV1 ovarian, in the experiment on MDA-N, in the experiment on NCI-H226 lung and with RPMI-8226 leukemia was more than 100 µM throughout. In the experiment on SK-MEL-5 melanoma, this compound had a TGI of more than 100 µM.

For `CC1=NN(C(=O)Cc2ccccc2)C(=O)/C1=C\c1ccc([N+](=O)[O-])cc1`, the TGI with CAKI-1 renal, in the experiment with COLO 205 colon, in the experiment with EKVX NSCLC, in the experiment with IGROV1 ovarian, in the experiment on NCI-H226 lung and in the experiment with RPMI-8226 leukemia was more than 100 µM each time. In addition, the TGI in the experiment with SK-MEL-5 melanoma is more than 100 µM.

With `O=C1c2cc(I)ccc2N2CCN=C2N1Cc1ccccc1`, the TGI in the experiment with CAKI-1 renal, with COLO 205 colon, in the experiment on EKVX NSCLC, in the experiment on HL-60(TB) leukemia, with IGROV1 ovarian and in the experiment with MDA-MB-231 breast was more than 100 µM in each case. In addition, the TGI with NCI-H226 lung, in the experiment with RPMI-8226 leukemia and in the experiment with SK-MEL-5 melanoma was more than 100 µM each time.

As for `CN(C)CCNC(=O)c1cccc2ccc(-c3ccc(Br)cc3)nc12`, the TGI in the experiment with CAKI-1 renal was determined as 7.15 µM; in the experiment with COLO 205 colon, 2.54 µM; in the experiment on EKVX NSCLC, 9.08 µM; in the experiment on HL-60(TB) leukemia, 4.2 µM; in the experiment with IGROV1 ovarian it was 13.2 µM; with NCI-H226 lung it was 4.82 µM. Moreover, the TGI amounted to 5.93 µM in the experiment with RPMI-8226 leukemia and 2.92 µM with SK-MEL-5 melanoma.

With `CCOC(=O)c1[nH]cc(C)c1-c1cccn1-c1ccc(Cl)cc1[N+](=O)[O-]`, the TGI in the experiment with CAKI-1 renal was more than 100 µM; with COLO 205 colon it was 38.2 µM; in the experiment with EKVX NSCLC, 88.4 µM; with IGROV1 ovarian, 49.9 µM; in the experiment with MDA-MB-231 breast it was 27.5 µM; in the experiment with MDA-N it was 69.6 µM. In addition, the TGI came out at 46.2 µM in the experiment on NCI-H226 lung and 28.1 µM with SK-MEL-5 melanoma.

For `CCC12CCCN(Cc3ccccc3)C1c1c(n(C)c3ccccc13)C(CO)C2` (stereo not given), the TGI in the experiment with CAKI-1 renal was more than 257 µM; in the experiment with COLO 205 colon it was 75.2 µM; in the experiment with EKVX NSCLC, 245 µM; in the experiment with HL-60(TB) leukemia it was 169 µM; with IGROV1 ovarian, 218 µM; in the experiment with NCI-H226 lung it was 104 µM. Moreover, the figures for the TGI in the experiment on RPMI-8226 leukemia and in the experiment with SK-MEL-5 melanoma were 108 µM and 76.9 µM, respectively.

Consider `CCC(C)(C)c1cc(O)c(C(C)(C)CC)cc1O`, for which the GI50 in the experiment with CAKI-1 renal is 2.44 µM; with COLO 205 colon, 2.42 µM; in the experiment with EKVX NSCLC, 2.54 µM; with MDA-MB-231 breast it was 2.35 µM; with NCI-H226 lung it was 3.63 µM; in the experiment on RPMI-8226 leukemia, 2.41 µM. For the same compound, the GI50 in the experiment with SK-MEL-5 melanoma is 2.2 µM. The TGI was determined as 7.74 µM in the experiment with CAKI-1 renal; 5.28 µM in the experiment with COLO 205 colon; 14.6 µM in the experiment with EKVX NSCLC; 8.04 µM in the experiment with MDA-MB-231 breast; 15.2 µM in the experiment with NCI-H226 lung; 9.09 µM in the experiment on RPMI-8226 leukemia. In addition, the TGI with SK-MEL-5 melanoma amounted to 5.26 µM.

With `CCc1cc(C)cc2[n+]1CC=C2`, the TGI was more than 100 µM with CAKI-1 renal; 81.5 µM with COLO 205 colon; 87.9 µM with EKVX NSCLC; 12.8 µM in the experiment on HL-60(TB) leukemia; 80.8 µM in the experiment on NCI-H226 lung.

For the compound `O=c1cc(-c2ccccc2)[nH]c2ncccc12`, the TGI in the experiment on CAKI-1 renal is more than 100 µM; with EKVX NSCLC, more than 100 µM; in the experiment on IGROV1 ovarian it was more than 100 µM; in the experiment on MDA-MB-231 breast, more than 26.7 µM; in the experiment on RPMI-8226 leukemia, more than 100 µM; with SK-MEL-5 melanoma it was more than 60.6 µM.

In the case of `O=C(CN1CCCC1=O)CS(=O)(=O)c1ccccc1`, the TGI in the experiment on COLO 205 colon, in the experiment on EKVX NSCLC, with HL-60(TB) leukemia, with IGROV1 ovarian, in the experiment with MDA-N and in the experiment on NCI-H226 lung was more than 100 µM each time. For the same compound, the TGI in the experiment on RPMI-8226 leukemia and in the experiment with SK-MEL-5 melanoma was more than 100 µM throughout.

In the case of `COC1OCC(O)C(NC(=O)N(C)N=O)C1O` (stereo not given), the TGI with CAKI-1 renal, in the experiment with COLO 205 colon, in the experiment on EKVX NSCLC, in the experiment on IGROV1 ovarian, in the experiment on NCI-H226 lung and in the experiment with RPMI-8226 leukemia was more than 100 µM throughout. The TGI with SK-MEL-5 melanoma was more than 100 µM.

As to `COC(C/C(=C/CO[Si](C(C)C)(C(C)C)C(C)C)C(=O)N(C(=O)OC(C)(C)C)c1ccccc1I)OC`, the TGI in the experiment on CAKI-1 renal is more than 100 µM; in the experiment with COLO 205 colon it was more than 100 µM; in the experiment with IGROV1 ovarian, 29.6 µM; in the experiment with MDA-N, more than 100 µM; in the experiment with NCI-H226 lung, more than 100 µM; in the experiment with RPMI-8226 leukemia, more than 100 µM. In addition, the TGI in the experiment on SK-MEL-5 melanoma was more than 100 µM.

Consider `COc1cccc2c1NC(=O)Cc1c-2[nH]c2ccccc12`, for which the TGI with CAKI-1 renal, in the experiment with COLO 205 colon, in the experiment with EKVX NSCLC, in the experiment with HL-60(TB) leukemia, in the experiment on IGROV1 ovarian and with MDA-MB-231 breast was more than 100 µM each time. Besides, the TGI with NCI-H226 lung, in the experiment with RPMI-8226 leukemia and in the experiment with SK-MEL-5 melanoma was more than 100 µM in each case.

Turning to `O=C(Cc1nc2ccc(C(=O)c3ccccc3)cc2[nH]c1=O)C(=O)Nc1nc2ccccc2[nH]1`, the TGI with CAKI-1 renal, with COLO 205 colon, in the experiment with EKVX NSCLC, with HL-60(TB) leukemia, with IGROV1 ovarian and in the experiment with SK-MEL-5 melanoma was more than 100 µM throughout.

Consider `Nc1nc(NCCOCP(=O)(O)O)c([N+](=O)[O-])c(=O)[nH]1`, for which the TGI in the experiment on COLO 205 colon, in the experiment on EKVX NSCLC, with HL-60(TB) leukemia, with IGROV1 ovarian, in the experiment with NCI-H226 lung and in the experiment on RPMI-8226 leukemia was more than 100 µM each time.

As to `CN(C)CN1CSC(=S)N(CN(C)C)C1`, the TGI with CAKI-1 renal, in the experiment on EKVX NSCLC, in the experiment with IGROV1 ovarian, with MDA-MB-231 breast, in the experiment with MDA-N and with NCI-H226 lung was more than 100 µM each time. Moreover, the TGI in the experiment with SK-MEL-5 melanoma was more than 100 µM.

On to `CN(C)C(=O)Oc1c(Br)cc(Br)cc1C(=O)OCc1ccccc1`, for which the TGI was 68.6 µM in the experiment with CAKI-1 renal; 34 µM in the experiment on COLO 205 colon; more than 100 µM in the experiment on EKVX NSCLC; 49.9 µM with HL-60(TB) leukemia; more than 100 µM in the experiment on IGROV1 ovarian; more than 77.3 µM in the experiment with NCI-H226 lung. For the same compound, the results for the TGI in the experiment on RPMI-8226 leukemia and in the experiment on SK-MEL-5 melanoma were 52.4 µM and 17.7 µM, respectively.

(Values after PubChem BioAssay (NCI).)
